Columns and labels:
Format in all cases: functional
OVCAR-8 = test: Growth inhibition of human OVCAR-8 cells at 10 uM incubated for 48 hrs by sulforhodamine B assay relative to control; conditions: read-out: GI
NCI-H322M = test: Growth inhibition of human NCI-H322M cells at 10 uM incubated for 48 hrs by sulforhodamine B assay relative to control; conditions: read-out: GI
NCI-H460 [1] = test: Growth inhibition of human NCI-H460 cells at 10 uM incubated for 48 hrs by sulforhodamine B assay relative to control; conditions: read-out: GI
EKVX = test: Growth inhibition of human EKVX cells at 10 uM incubated for 48 hrs by sulforhodamine B assay relative to control; conditions: read-out: GI
MDA-MB-435 = test: Growth inhibition of human MDA-MB-435 cells at 10 uM incubated for 48 hrs by sulforhodamine B assay relative to control; conditions: read-out: GI
K562 [2] = test: Growth inhibition of human K562 cells at 10 uM incubated for 48 hrs by sulforhodamine B assay relative to control; conditions: read-out: GI
SN12C [3] = test: Growth inhibition of human SN12C cells at 10 uM incubated for 48 hrs by sulforhodamine B assay relative to control; conditions: read-out: GI
MDA-MB-231 = test: Growth inhibition of human MDA-MB-231 cells at 10 uM incubated for 48 hrs by sulforhodamine B assay relative to control; conditions: read-out: GI
A498 [4] = test: Growth inhibition of human A498 cells at 10 uM incubated for 48 hrs by sulforhodamine B assay relative to control; conditions: read-out: GI
SW-620 [5] = test: Growth inhibition of human SW-620 cells at 10 uM incubated for 48 hrs by sulforhodamine B assay relative to control; conditions: read-out: GI
KM12 = test: Growth inhibition of human KM12 cells at 10 uM incubated for 48 hrs by sulforhodamine B assay relative to control; conditions: read-out: GI
UO-31 = test: Growth inhibition of human UO-31 cells at 10 uM incubated for 48 hrs by sulforhodamine B assay relative to control; conditions: read-out: GI
SF-539 [6] = test: Growth inhibition of human SF-539 cells at 10 uM incubated for 48 hrs by sulforhodamine B assay relative to control; conditions: read-out: GI
NCI-H522 [7] = test: Growth inhibition of human NCI-H522 cells at 10 uM incubated for 48 hrs by sulforhodamine B assay relative to control; conditions: read-out: GI
NCI-H23 = test: Growth inhibition of human NCI-H23 cells at 10 uM incubated for 48 hrs by sulforhodamine B assay relative to control; conditions: read-out: GI
K562 [8] = test: Growth inhibition of human K562 cells incubated for 48 hrs by sulforhodamine B assay
SR = test: Growth inhibition of human SR cells incubated for 48 hrs by sulforhodamine B assay
HCT-15 = test: Growth inhibition of human HCT-15 cells incubated for 48 hrs by sulforhodamine B assay
NCI-H460 [9] = test: Growth inhibition of human NCI-H460 cells incubated for 48 hrs by sulforhodamine B assay
HT-29 = test: Growth inhibition of human HT-29 cells incubated for 48 hrs by sulforhodamine B assay
SK-MEL-2 = test: Growth inhibition of human SK-MEL-2 cells at 10 uM incubated for 48 hrs by sulforhodamine B assay relative to control; conditions: read-out: GI
NCI/ADR-RES = test: Growth inhibition of human NCI/ADR-RES cells incubated for 48 hrs by sulforhodamine B assay
786-0 = test: Growth inhibition of human 786-0 cells incubated for 48 hrs by sulforhodamine B assay
SNB-75 = test: Growth inhibition of human SNB-75 cells incubated for 48 hrs by sulforhodamine B assay
COLO 205 = test: Growth inhibition of human COLO 205 cells incubated for 48 hrs by sulforhodamine B assay
SW-620 [10] = test: Growth inhibition of human SW-620 cells incubated for 48 hrs by sulforhodamine B assay
UACC-62 = test: Growth inhibition of human UACC-62 cells incubated for 48 hrs by sulforhodamine B assay
NCI-H226 = test: Growth inhibition of human NCI-H226 cells incubated for 48 hrs by sulforhodamine B assay
NCI-H522 [11] = test: Growth inhibition of human NCI-H522 cells incubated for 48 hrs by sulforhodamine B assay
A498 [12] = test: Growth inhibition of human A498 cells incubated for 48 hrs by sulforhodamine B assay
SF-539 [13] = test: Growth inhibition of human SF-539 cells incubated for 48 hrs by sulforhodamine B assay
SN12C [14] = test: Growth inhibition of human SN12C cells incubated for 48 hrs by sulforhodamine B assay
RPMI-8226 = test: Growth inhibition of human RPMI-8226 cells incubated for 48 hrs by sulforhodamine B assay
SF-268 = test: Growth inhibition of human SF-268 cells incubated for 48 hrs by sulforhodamine B assay
HL-60(TB) = test: Growth inhibition of human HL-60(TB) cells incubated for 48 hrs by sulforhodamine B assay
[15] = read-out: LC50 (the source's name)

## O=C(Cn1ccc2ccccc21)Nc1ccc(-c2nc3ccccc3s2)cc1
OVCAR-8
  inhibition of growth at 10 µM: -4.73%
NCI-H322M
  inhibition of growth at 10 µM: 1.19%
NCI-H460 [1]
  inhibition of growth at 10 µM: -4.62%
EKVX
  inhibition of growth at 10 µM: -7.41%
MDA-MB-435
  inhibition of growth at 10 µM: -3.52%
K562 [2]
  inhibition of growth at 10 µM: -3.37%
SN12C [3]
  inhibition of growth at 10 µM: -1.09%
MDA-MB-231
  inhibition of growth at 10 µM: -7.77%
A498 [4]
  inhibition of growth at 10 µM: 0.94%
SW-620 [5]
  inhibition of growth at 10 µM: -6.47%
KM12
  inhibition of growth at 10 µM: -6.39%
UO-31
  inhibition of growth at 10 µM: 7.58%
SF-539 [6]
  inhibition of growth at 10 µM: -2.36%
NCI-H522 [7]
  inhibition of growth at 10 µM: -1.58%
NCI-H23
  inhibition of growth at 10 µM: 5.98%

## O=C(CNc1ccc(Cl)cc1)Nc1ccc(-c2nc3ccccc3s2)cc1
K562 [8]
  GI50: 2.95 µM
  LC50: > 100 µM
  TGI: > 100 µM
SR
  GI50: 1.62 µM
  LC50: > 100 µM
  TGI: 5.76 µM
OVCAR-8
  inhibition of growth at 10 µM: 33.6%
HCT-15
  GI50: 1.56 µM
  TGI: 4.74 µM
HCT-15; [15]
  CC50: 45.9 µM
NCI-H460 [9]
  GI50: 3.73 µM
  TGI: 13.1 µM
NCI-H460 [9]; [15]
  CC50: 39.8 µM
NCI-H322M
  inhibition of growth at 10 µM: 19.7%
HT-29
  GI50: 1.96 µM
  LC50: 8.17 µM
  TGI: 4 µM
SK-MEL-2
  inhibition of growth at 10 µM: 21.5%
NCI-H460 [1]
  inhibition of growth at 10 µM: 12.9%
NCI/ADR-RES
  GI50: 3.03 µM
  LC50: > 100 µM
  TGI: 8.5 µM
786-0
  GI50: 1.85 µM
  LC50 (50% lethal concentration): 9 µM
  TGI: 4.08 µM
SNB-75
  GI50: 2.65 µM
  LC50 (concentration killing 50% of cells): 37.6 µM
  TGI: 14.1 µM
COLO 205
  GI50: 2.08 µM
  LC50: 9.08 µM
  TGI: 4.35 µM
MDA-MB-435
  inhibition of growth at 10 µM: 37.2%
K562 [2]
  inhibition of growth at 10 µM: 88.1%
SW-620 [10]
  GI50: 1.89 µM
  LC50 (concentration killing 50% of cells): 8.08 µM
  TGI: 3.9 µM
SN12C [3]
  inhibition of growth at 10 µM: 53.2%
MDA-MB-231
  inhibition of growth at 10 µM: 62.4%
UACC-62
  GI50: 1.7 µM
  LC50: 19.4 µM
  TGI: 4.22 µM
SW-620 [5]
  inhibition of growth at 10 µM: 77.4%
NCI-H226
  GI50: 2.25 µM
  LC50: > 100 µM
  TGI: 7.1 µM
KM12
  inhibition of growth at 10 µM: 19.3%
NCI-H522 [11]
  GI50: 1.32 µM
  LC50 (50% lethal concentration): 7.46 µM
  TGI: 3.13 µM
UO-31
  inhibition of growth at 10 µM: 35%
SF-539 [6]
  inhibition of growth at 10 µM: 21.9%
A498 [12]
  GI50: 13 µM
  TGI: 25.8 µM
A498 [12]; [15]
  CC50: 50.9 µM
NCI-H522 [7]
  inhibition of growth at 10 µM: 194%
SF-539 [13]
  GI50: 1.86 µM
  LC50: 7.14 µM
  TGI: 3.65 µM
SN12C [14]
  GI50: 2.74 µM
  LC50: 73.4 µM
  TGI: 8.49 µM
RPMI-8226
  GI50: 2.52 µM
  LC50: > 100 µM
  TGI: 6.73 µM
NCI-H23
  inhibition of growth at 10 µM: 60.9%
SF-268
  GI50: 2 µM
  LC50: 15 µM
  TGI: 4.76 µM
HL-60(TB)
  GI50: 2.23 µM
  TGI: 6.05 µM
HL-60(TB); [15]
  CC50: > 100 µM

## O=C(Cn1cnc2ccccc21)Nc1ccc(-c2nc3ccccc3s2)cc1
OVCAR-8
  inhibition of growth at 10 µM: 28%
NCI-H322M
  inhibition of growth at 10 µM: 8.06%
NCI-H460 [1]
  inhibition of growth at 10 µM: 34.3%
EKVX
  inhibition of growth at 10 µM: 46.8%
MDA-MB-435
  inhibition of growth at 10 µM: 32.3%
K562 [2]
  inhibition of growth at 10 µM: 66.4%
SN12C [3]
  inhibition of growth at 10 µM: 16.2%
MDA-MB-231
  inhibition of growth at 10 µM: 9.34%
A498 [4]
  inhibition of growth at 10 µM: 33.2%
SW-620 [5]
  inhibition of growth at 10 µM: 15.2%
KM12
  inhibition of growth at 10 µM: 24.9%
UO-31
  inhibition of growth at 10 µM: 35.4%
SF-539 [6]
  inhibition of growth at 10 µM: 22.9%
NCI-H522 [7]
  inhibition of growth at 10 µM: 33.4%
NCI-H23
  inhibition of growth at 10 µM: 51.5%

## O=C(Cn1ccnc1)Nc1ccc(-c2nc3ccccc3s2)cc1
OVCAR-8
  inhibition of growth at 10 µM: 19.7%
NCI-H322M
  inhibition of growth at 10 µM: 1.71%
NCI-H460 [1]
  inhibition of growth at 10 µM: 20.2%
EKVX
  inhibition of growth at 10 µM: 38.6%
MDA-MB-435
  inhibition of growth at 10 µM: 18.4%
K562 [2]
  inhibition of growth at 10 µM: 60.4%
SN12C [3]
  inhibition of growth at 10 µM: 15.4%
MDA-MB-231
  inhibition of growth at 10 µM: 19.9%
A498 [4]
  inhibition of growth at 10 µM: 42.5%
SW-620 [5]
  inhibition of growth at 10 µM: 0.17%
KM12
  inhibition of growth at 10 µM: 15.6%
UO-31
  inhibition of growth at 10 µM: 39.6%
SF-539 [6]
  inhibition of growth at 10 µM: 18.7%
NCI-H522 [7]
  inhibition of growth at 10 µM: 25.3%
NCI-H23
  inhibition of growth at 10 µM: 42.6%
